Molecular target: T1, PrTNA (Proteiniclasticum ruminis, UniProt A0A1I5A1Q1)
T1 construct: gene tnaA; full length, untagged, codon-optimised gene in pGold, expressed in C. glutamicum C1*
T1 sequence (A0A1I5A1Q1 1-461): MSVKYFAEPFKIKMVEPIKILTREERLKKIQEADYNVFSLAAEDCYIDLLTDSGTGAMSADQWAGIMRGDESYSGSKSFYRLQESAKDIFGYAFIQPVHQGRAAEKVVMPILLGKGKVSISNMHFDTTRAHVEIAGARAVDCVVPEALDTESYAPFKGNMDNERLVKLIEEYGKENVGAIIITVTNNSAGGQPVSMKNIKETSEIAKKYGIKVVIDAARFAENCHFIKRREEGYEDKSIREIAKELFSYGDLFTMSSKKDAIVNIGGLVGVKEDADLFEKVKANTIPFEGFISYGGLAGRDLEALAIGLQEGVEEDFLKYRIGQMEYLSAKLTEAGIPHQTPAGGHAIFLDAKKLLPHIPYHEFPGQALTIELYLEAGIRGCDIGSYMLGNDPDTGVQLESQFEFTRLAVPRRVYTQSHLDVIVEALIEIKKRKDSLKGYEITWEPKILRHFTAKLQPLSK
Assay: whole-cell conversion to indole, HPLC
Assay type: cell-based
Settings: C. glutamicum C1* co-expressing aroP, CGXII medium, 1 g L^−1 Trp; empty vector control without aroP

N[C@@H](Cc1c[nH]c2ccccc12)C(=O)O [L-tryptophan]
whole-cell conversion to indole, HPLC: Indole production was observed for all six tested TNAs

Reference: PMC8944080, “Production of indole by Corynebacterium glutamicum microbial cell factories for flavor and fragrance applications” (Microbial Cell Factories, 2022)
